Laboratory results published in patent US11851421B2, “Near-infrared cyanine dyes and conjugates thereof” (BRACCO IMAGING S.P.A., priority 2020, dated 2023).

Tests used:
[1] = molecular target: T1, human serum albumin (HSA) (Homo sapiens, UniProt P02768); assay: Binding affinity to human serum albumin (absorbance peak shift or ultrafiltration method)
T1 construct: purchased Sigma Aldrich A9511
Description: An analysis of the binding affinity of the compounds of the invention to human albumin was carried out and the results compared with ICG and […] as a reference. Binding affinity to human serum albumin (HSA; Sigma Aldrich, A9511) was measured using two methods, according to the level of binding affinity of the compounds. The first method, optimal for compounds which strongly interact with HSA, is based on the analysis of the absorbance spectrum peak shift after the incubation of the dye in solutions containing HSA. […] The measure was performed at the maximum absorbance wavelength of the shifted peak. The second method, optimal for compound with low affinity for HSA, is based on measuring the variation of the absorbance of solutions containing the dye and various concentrations of HSA after ultrafiltration. […] In the first method, ΔA/b corresponds to the absorbance measured for each sample, whereas in the second method ΔA/b is obtained subtracting the absorbance of the control sample (dye without HSA) to the absorbance of each other sample.

[2] = Optical properties: excitation/emission maxima and absolute fluorescence quantum yield; assay type: physicochemical
Description: A dual-beam UV-VIS spectrophotometer (Lambda 40, Perkin Elmer) was used to determine the absorbance (Abs) of the compounds of the invention. Emission/excitation (Em/Ex) spectra and absolute fluorescence quantum yield (ϕ) measurements were carried out on a spectrofluorometer (FluoroLog-3 1IHR-320, Horiba Jobin Yvon) equipped with an F-3018 integrating sphere accessory. The measurements were performed using an excitation wavelength at maximum absorbance of different dyes, and the sample was excited with a 450 W Xenon Light Source. Detection was performed by photomultiplier tubes (PMT-NIR) cooled detector or by TBX-04 detector. Dye solutions were carefully prepared to have an absorbance lower than 0.1 (optical densities) to minimize re-absorption phenomena.
The compounds of the invention have been characterized in terms of their optical properties in vitro in aqueous medium (i.e., water/PBS pH 7.4) and in a clinical chemistry control serum (Seronorm, Sero SA), mimicking the chemical composition and optical properties of human serum. All dye or dye-conjugate solutions were freshly prepared. ICG and S0456 were used as commercial references.
In particular, the excitation and emission maxima and the absolute fluorescence quantum yield (Φ) of representative compounds of formula (I) and conjugates of formula (II) are shown in Table II.

[3] = molecular target: T2, human recombinant integrin αvβ3 (Homo sapiens, UniProt P05106+P06756); assay: Receptor binding affinity ELISA (Vitronectin-coated plates); details: duplicate, read-out: Receptor affinity (IC50, nM ± St. Dev.)
T2 construct: purchased R&D Systems
T2 sequence (P06756 31-992 limits assumed): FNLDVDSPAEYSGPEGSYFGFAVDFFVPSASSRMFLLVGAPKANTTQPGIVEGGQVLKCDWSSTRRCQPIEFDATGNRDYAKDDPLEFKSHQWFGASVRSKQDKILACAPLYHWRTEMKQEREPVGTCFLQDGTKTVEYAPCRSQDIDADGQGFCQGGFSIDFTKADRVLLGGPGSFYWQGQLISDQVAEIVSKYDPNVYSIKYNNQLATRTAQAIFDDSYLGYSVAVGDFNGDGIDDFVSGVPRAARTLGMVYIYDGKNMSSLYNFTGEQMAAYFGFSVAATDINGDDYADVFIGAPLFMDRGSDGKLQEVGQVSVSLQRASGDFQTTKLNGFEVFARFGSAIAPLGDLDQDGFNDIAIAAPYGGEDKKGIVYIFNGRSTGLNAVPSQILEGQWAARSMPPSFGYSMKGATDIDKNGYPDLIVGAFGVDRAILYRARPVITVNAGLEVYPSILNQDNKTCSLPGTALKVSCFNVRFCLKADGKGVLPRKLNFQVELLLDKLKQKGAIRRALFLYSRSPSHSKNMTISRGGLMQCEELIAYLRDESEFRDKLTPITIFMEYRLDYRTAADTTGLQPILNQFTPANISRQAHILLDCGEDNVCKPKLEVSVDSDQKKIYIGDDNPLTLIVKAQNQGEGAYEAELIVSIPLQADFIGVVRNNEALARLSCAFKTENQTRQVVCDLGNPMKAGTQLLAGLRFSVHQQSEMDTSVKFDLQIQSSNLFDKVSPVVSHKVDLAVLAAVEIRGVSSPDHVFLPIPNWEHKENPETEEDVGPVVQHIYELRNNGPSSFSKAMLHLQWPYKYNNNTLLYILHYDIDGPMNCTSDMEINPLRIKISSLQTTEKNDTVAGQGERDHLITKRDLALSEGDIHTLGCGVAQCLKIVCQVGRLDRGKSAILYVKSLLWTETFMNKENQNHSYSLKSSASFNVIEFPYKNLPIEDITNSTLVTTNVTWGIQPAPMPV
T2 sequence (P05106 27-718 limits assumed): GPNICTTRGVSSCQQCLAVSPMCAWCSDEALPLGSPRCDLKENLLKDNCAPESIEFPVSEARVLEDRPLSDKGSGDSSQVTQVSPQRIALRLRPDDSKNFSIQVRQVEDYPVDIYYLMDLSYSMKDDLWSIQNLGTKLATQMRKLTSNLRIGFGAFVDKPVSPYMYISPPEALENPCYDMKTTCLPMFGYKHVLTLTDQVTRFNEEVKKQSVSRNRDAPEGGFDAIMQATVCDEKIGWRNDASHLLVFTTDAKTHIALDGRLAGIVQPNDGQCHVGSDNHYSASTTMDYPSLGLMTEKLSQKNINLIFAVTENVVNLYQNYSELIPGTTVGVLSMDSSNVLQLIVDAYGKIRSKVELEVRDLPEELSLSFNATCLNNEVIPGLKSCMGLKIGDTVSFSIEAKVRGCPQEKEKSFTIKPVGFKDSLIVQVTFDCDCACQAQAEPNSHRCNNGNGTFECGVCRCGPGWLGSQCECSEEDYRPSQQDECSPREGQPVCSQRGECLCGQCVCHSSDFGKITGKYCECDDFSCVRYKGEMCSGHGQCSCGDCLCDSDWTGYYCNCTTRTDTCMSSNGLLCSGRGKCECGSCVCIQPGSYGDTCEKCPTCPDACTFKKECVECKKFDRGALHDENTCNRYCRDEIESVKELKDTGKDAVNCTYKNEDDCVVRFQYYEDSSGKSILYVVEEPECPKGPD
Description: Briefly, 96-well ELISA plates were coated overnight at 4° C. with the extracellular matrix (ECM) protein Vitronectin in carbonate buffer (15 mM Na2CO3, 35 mM NaHCO3, pH 9.6). Each well was then washed with PBS-T-buffer (phosphate-buffered saline/Tween20, 137 mM NaCl, 2.7 mM KCl, 10 mM Na2HPO4, 2 mM KH2PO4, 0.01% Tween20, pH 7.4) and blocked for 1 h at RT with TS-B-buffer (Tris-saline/BSA buffer; 20 mM Tris-HCl, 150 mM NaCl, 1 mM CaCl2, 1 mM MgCl2, 1 mM MnCl2, pH 7.5, 1% BSA). In the meantime, a dilution series of the compound and internal standard was prepared in an extra plate. After washing the assay plate three times with PBS-T, 50 μL of the dilution series were transferred to each well. 50 μL of a solution of human recombinant integrin αvβ3 (R&D Systems, 1 μg/mL) in TS-B-buffer was transferred to the wells and incubated for 1 h. The plate was washed three times with PBS-T buffer, and then primary antibody anti-αvβ3 was added to the plate. After incubation and washing three times with PBS-T, the secondary anti-IgG peroxidase-labeled antibody was added to the plate and incubated for 1 h. After washing the plate three times with PBS-T, the plate was developed by quick addition of 3,3′,5,5′-tetrametylbenzidine (TMB) and incubated for 5 min in the dark. The reaction was stopped with 3 M H2SO4, and the absorbance was measured at 450 nm with a plate reader (Victor3, Perkin Elmer).
The IC50 of the representative Compounds 1, 2 and 4 was tested in duplicate, and the resulting inhibition curves were analyzed using GraphPad Prism version 4.0 for Windows (GraphPad Software). The inflection point defines the IC50 value.

[4] = system: human glioblastoma U87MG cells; assay: Tumor uptake in animal model of human glioblastoma (subcutaneous), ex vivo optical imaging; details: ex vivo tumor-to-muscle, 24 h after i.v. administration, glioblastoma tumor bearing mice, n = 5/group
Description: Tumor uptake experiments were carried out in an animal model of human glioblastoma (subcutanous) overexpressing the integrin receptors, particularly αvβ3. Briefly, human glioblastoma U87MG cells (ATCC, HTB-14) were cultured in Eagle's Minimum Essential Medium (EMEM) supplemented with 10% Fetal Bovine Serum (FBS), 2 mM glutamine, 100 IU/mL penicillin, 100 μg/mL streptomycin. Male Balb/c nu/nu mice, 4-6 weeks of age (Charles River Laboratories), underwent subcutaneous implantation (right flank) of about 10 million cells suspended in 0.1 mL of EMEM. Mice were housed 4 per cage with food and water ad libitum. Animals were fed with VRF1 (P) sterile diet (Special Diets Services Ltd) up to the end of the acclimation period (5 days). Then, AIN-76a rodent diet irradiated (Research Diets), a special diet that reduces auto-fluorescence, was used up to the end of the experiments. Tumor growth was monitored by longitudinal assessments using a caliper up to the target size of 300-600 mm^3 (3-4 weeks after cell implantation). […] Regions of interest (ROIs) were drawn on the excised tumor and healthy muscle tissues to evaluate signal intensity (expressed as Average Radiant Efficiency). The ratio between the fluorescence signal in the tumor and in the muscle (background tissue) was then calculated to assess the contrast.

[5] = system: WM-266-4 human melanoma cells; assay: Cell uptake by FACS in presence of human serum; assay type: cell-based; details: WM-266-4 cells; fluorescence intensity in absence of serum = 100%
Description: The human melanoma cell line WM-266-4 (ATCC, CRL-1676) was used as in vitro model to assess the cell uptake of representative integrin-binding Compounds 1, 2 and 4, based on the high expression of the integrin receptors, particularly αvβ3, on the membrane of these cells (Capasso et al., PlosOne 2014).
Adherent cells at about 70% confluence were incubated with the Compounds 1 or 3 (1 μM) for 2 h at 37° C. (5% CO2) in presence of Dulbecco's Modified Eagle's Medium (DMEM) supplemented with 10% FBS, 2 mM glutamine, 100 IU/mL penicillin and 100 μg/mL streptomycin. […] Fluorescence Activated Cell Sorting (FACS) was used to detect the fluorescence signal within the cells, as measure of cell uptake. Samples were excited with an Argon laser and the emission detected using a 670 nm longpass filter. Values of fluorescence intensity were obtained from the histogram statistic produced by the instrument software.
The residual internalization was calculated by considering the value of fluorescence intensity in absence of the competitor as 100%.
Furthermore, to assess the effect of biological fluids on the cell uptake, parallel experiments were performed incubating the cells with a compounds of the invention in presence of human serum from male AB plasma (Sigma Aldrich, H4522). The residual internalization was calculated by considering the value of fluorescence intensity in absence of the serum as 100%. […]

[6] = system: human colorectal adenocarcinoma cells HT-29; assay: Tumor uptake in animal model of human colorectal cancer (subcutaneous), ex vivo optical imaging; details: ex vivo tumor-to-muscle, 24 h after i.v. administration, colorectal cancer bearing mice, n = 5/group
Description: Tumor uptake experiments were performed in an animal model of human colorectal cancer (subcutaneous), using HT-29 cells, expressing low levels of integrin receptors. Briefly, the human colorectal adenocarcinoma cells HT-29 (ATCC, HTB-38) were cultured in McCoy's 5 A medium supplemented with 10% foetal bovine serum, 2 mM glutamine, 100 IU/mL penicillin and 100 μg/mL streptomycin. Male Athymic nude mice, 4-6 weeks of age (Envigo), underwent subcutaneous implantation (right flank) of about 5 million cells suspended in 0.1 mL of serum-free medium. Mice were housed 4 per cage with food and water ad libitum. […] Then, AIN-76a rodent diet irradiated (Research Diets), a special diet that reduces auto-fluorescence, was used up to the end of the experiments. Tumor growth was monitored by longitudinal assessments using a caliper up to the target size of 300-600 mm^3 (3-4 weeks after cell implantation). […]
In vivo imaging was performed under gas anesthesia (Sevofluorane 6-8% in oxygen). […] Regions of interest (ROIs) were drawn on the excised tumor and healthy reference tissue (muscle) to evaluate signal intensity (expressed as Average Radiant Efficiency). The ratio between the fluorescence signal in the tumor and in the muscle (background tissue) was then calculated to assess the tumor-to-background ratio (TBR).

[7] = system: human pharyngeal carcinoma cells Detroit-562; assay: Tumor uptake in animal model of human head and neck cancer (orthotopic), ex vivo optical imaging; details: ex vivo anterior vs posterior tongue, 24 h after i.v. 3 nmol/mouse, H&N tumor bearing mice, n = 5/group
Description: Tumor uptake experiments were performed in an animal model of human head and neck cancer (orthotopic), using Detroit-562 cells, overexpressing in particular integrin receptor αvβ6. Briefly, the human pharyngeal carcinoma cells Detroit-562 (ATCC, CCL-138) were cultured in Eagle's Minimum Essential Medium (EMEM) supplemented with 10% Fetal Bovine Serum (FBS), 2 mM glutamine, 100 IU/mL penicillin, 100 μg/mL streptomycin. Male Balb/c nu/nu mice, 4-6 weeks of age (Charles River Laboratories), underwent orthotopic implantation in the anterior portion of the tongue of about 2.5 million cells suspended in 0.03 mL di EMEM. Mice were housed 4 per cage with food and water ad libitum. Animals were fed with VRF1 (P) sterile diet (Special Diets Services Ltd) up to the end of the acclimation period (5 days). Then, AIN-76a rodent diet irradiated (Research Diets), a special diet that reduces auto-fluorescence, was used up to the end of the experiments. Tumor growth was monitored by longitudinal assessments using a caliper up to the target size of 10-20 mm^3 (7-10 days after cell implantation).
Imaging experiments were performed using the preclinical optical system IVIS Spectrum (Perkin Elmer). Animals were intravenously injected (lateral tail vein) with 3 nmol/mouse, at 24 hours post-administration were euthanized by anesthesia overdose, and the tongues were excised for ex vivo optical imaging. […]

[8] = Seronorm (clinical chemistry control serum)

T1 sequence (P02768 25-609): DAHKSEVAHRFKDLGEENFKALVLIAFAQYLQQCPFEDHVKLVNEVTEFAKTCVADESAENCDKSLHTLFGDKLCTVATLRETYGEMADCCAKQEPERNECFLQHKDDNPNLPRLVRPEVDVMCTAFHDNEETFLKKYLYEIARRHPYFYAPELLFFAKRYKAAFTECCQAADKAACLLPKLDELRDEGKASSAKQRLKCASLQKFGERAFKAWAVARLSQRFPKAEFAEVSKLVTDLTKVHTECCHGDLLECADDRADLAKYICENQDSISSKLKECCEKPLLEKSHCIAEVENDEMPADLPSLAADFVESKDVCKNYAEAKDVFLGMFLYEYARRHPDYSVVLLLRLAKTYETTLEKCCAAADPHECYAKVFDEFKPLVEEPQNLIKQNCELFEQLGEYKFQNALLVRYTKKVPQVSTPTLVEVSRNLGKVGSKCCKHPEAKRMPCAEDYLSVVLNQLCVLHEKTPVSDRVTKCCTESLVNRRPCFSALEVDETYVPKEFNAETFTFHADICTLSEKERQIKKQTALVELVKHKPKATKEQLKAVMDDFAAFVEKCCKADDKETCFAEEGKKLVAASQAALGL

Row | SMILES | Kd [1] | Max Em (emission maximum) ([2]; PBS pH 7.4) | Max Ex (excitation maximum) ([2]; PBS pH 7.4) | Φ (absolute fluorescence quantum yield) ([2]; PBS pH 7.4) | Φ (absolute fluorescence quantum yield) [2, 8] | IC50 [3] | Tumor-to-background ratio (mean ± St. Dev) [4] | Residual cell uptake in presence of human serum [5] | Tumor-to-background ratio (mean ± St. Dev) [6] | Tumor-to-background ratio (mean ± St. Dev) [7]
1 | CC1(C)C(/C=C/C2=C(Oc3ccccc3)C(=C/C=C3/N(CCCCCC(=O)NCCCCC4NC(=O)[C@@H](Cc5ccccc5)NC(=O)[C@H](CC(=O)O)NC(=O)CNC(=O)[C@H](CCCNC(=N)N)NC4=O)c4ccc(C(=O)NCC(O)C(O)C(O)C(O)CO)cc4C3(C)C)/CCC2)=[N+](CCCCS(=O)(=O)[O-])c2ccc(C(=O)NCC(O)C(O)C(O)C(O)CO)cc21 (some centres unmarked) [Compound 4] | 100 µM | 803 nm | 781 nm | 5.0% | 9.9% | 1.84 ± 0.38 nM | 7.64 ± 0.86 | 85% |  | 
2 | CC1(C)C(/C=C/C2=C(Oc3ccc(S(=O)(=O)O)cc3)C(=C/C=C3/N(CCCCCC(=O)NCCCCC4NC(=O)[C@@H](Cc5ccccc5)NC(=O)[C@H](CC(=O)O)NC(=O)CNC(=O)[C@H](CCCNC(=N)N)NC4=O)c4ccc(C(=O)NCC(O)C(O)C(O)C(O)CO)cc4C3(C)C)/CCC2)=[N+](CCCCS(=O)(=O)[O-])c2ccc(C(=O)NCC(O)C(O)C(O)C(O)CO)cc21 (some centres unmarked) [Compound 2] | 38.2 µM | 805 nm | 783 nm | 6.1% | 7.5% | 1.64 ± 0.41 nM |  | 90% | 4.20 ± 0.80 | 2.26 ± 0.10
3 | CC1(C)C(/C=C/C2=C(c3ccccc3)C(=C/C=C3/N(CCCCS(=O)(=O)O)c4ccc(C(=O)NC(CO)(CO)CO)cc4C3(C)C)/CCC2)=[N+](CCCCS(=O)(=O)[O-])c2ccc(C(=O)NC(CO)(CO)CO)cc21 [Compound 21] | 30.9 µM | 790 nm | 769 nm | 5.6% | 12.8% |  |  |  |  | 
4 | CC1(C)C(/C=C/C2=C(Oc3ccccc3)C(=C/C=C3/N(CCCCS(=O)(=O)O)c4ccc(C(=O)NC(CO)CO)cc4C3(C)C)/CCC2)=[N+](CCCCS(=O)(=O)[O-])c2ccc(C(=O)NC(CO)CO)cc21 [Compound 19] | 35.3 µM | 805 nm | 783 nm | 6.5% | 10.9% |  |  |  |  | 
5 | CC1(C)C(/C=C/C2=C(c3ccc(CCC(=O)NCCCCC4NC(=O)[C@@H](Cc5ccccc5)NC(=O)[C@H](CC(=O)O)NC(=O)CNC(=O)[C@H](CCCNC(=N)N)NC4=O)cc3)C(=C/C=C3/N(CCCCS(=O)(=O)O)c4ccc(C(=O)NCC(O)C(O)C(O)C(O)CO)cc4C3(C)C)/CCC2)=[N+](CCCCS(=O)(=O)[O-])c2ccc(C(=O)NCC(O)C(O)C(O)C(O)CO)cc21 (some centres unmarked) [Compound 1] |  | 788 nm | 771 nm | 4.4% | 10.9% | 2.73 ± 0.5 nM | 6.92 ± 0.64 |  | 4.30 ± 1.50 | 2.27 ± 0.50
